Test systems include NCI/ADR-RES ovarian; LOX IMVI melanoma; HL-60(TB) leukemia; UACC-257 melanoma; EKVX NSCLC; IGROV1 ovarian; BT-549 breast.
What all share (experiment): inhibition of tumour cell growth, NCI panel, 48 h

For 18 molecules, TGI results are on record in PubChem BioAssay (NCI).

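96-well plates; 48 h exposure; 5 concentrations. Endpoints by linear interpolation between flanking doses. Not reached: highest tested concentration assigned. TGI: total growth inhibition.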

In the case of `COc1ccc(NC(C)=O)cc1C1CCC(=O)N1` (stereo unspecified), the TGI in the experiment on NCI/ADR-RES ovarian, in the experiment on LOX IMVI melanoma, with HL-60(TB) leukemia, with UACC-257 melanoma, in the experiment on EKVX NSCLC and in the experiment with IGROV1 ovarian was more than 100 µM throughout.
In the case of `Cc1cc(NCCCCCCCCCC[n+]2c(C)cc(N)c3ccccc32)c2ccccc2n1`, the TGI in the experiment on NCI/ADR-RES ovarian was 74.8 µM; in the experiment with BT-549 breast it was more than 100 µM; in the experiment with EKVX NSCLC it was more than 100 µM; with IGROV1 ovarian, 17.3 µM.
Consider `[N-]=[NH+]CC(=O)OC(COCc1ccccc1)COCc1ccccc1`, for which the TGI in the experiment with LOX IMVI melanoma, in the experiment with HL-60(TB) leukemia, with BT-549 breast, with UACC-257 melanoma, in the experiment on EKVX NSCLC and in the experiment on IGROV1 ovarian was more than 100 µM in each case.
Regarding `COc1cc(NCc2ccc3nc(OC)c(OC)nc3c2)cc(OC)c1OC`, the TGI in the experiment with NCI/ADR-RES ovarian, in the experiment on LOX IMVI melanoma, in the experiment on HL-60(TB) leukemia, with UACC-257 melanoma, in the experiment on EKVX NSCLC and with IGROV1 ovarian was more than 100 µM each time.
On to `Cc1ccc(SCC(CF)OCn2cc(F)c(=O)[nH]c2=O)cc1` (stereo unspecified), for which the TGI with NCI/ADR-RES ovarian, in the experiment on LOX IMVI melanoma, in the experiment with HL-60(TB) leukemia, with UACC-257 melanoma, in the experiment on EKVX NSCLC and in the experiment on IGROV1 ovarian was more than 100 µM each time.
`CSC1=N/C(=C\c2ccco2)C(=O)N1CN1CCCCC1`: the TGI in the experiment with NCI/ADR-RES ovarian, in the experiment with LOX IMVI melanoma, with EKVX NSCLC and in the experiment on IGROV1 ovarian was more than 100 µM throughout.
In the case of `O=c1oc2ccccc2nc1/C=C(\O)c1ccc([N+](=O)[O-])cc1`, the TGI in the experiment on NCI/ADR-RES ovarian, in the experiment with BT-549 breast, with UACC-257 melanoma, in the experiment on EKVX NSCLC and in the experiment with IGROV1 ovarian was more than 100 µM each time.
On to `O=C1c2c(ccc3c2CCC3)CC12Cc1cc3c(cc1C2)CCC3`, for which the TGI in the experiment with NCI/ADR-RES ovarian, in the experiment on LOX IMVI melanoma, in the experiment on HL-60(TB) leukemia, with UACC-257 melanoma, in the experiment on EKVX NSCLC and in the experiment on IGROV1 ovarian was more than 100 µM each time.
Consider `O=C(C1C(c2ccccc2)N1C(c1ccccc1)c1ccccc1)C1C(c2ccccc2)N1C(c1ccccc1)c1ccccc1` (stereo unspecified), for which the TGI was more than 100 µM in the experiment on NCI/ADR-RES ovarian, 12 µM in the experiment on HL-60(TB) leukemia, 40.3 µM in the experiment with UACC-257 melanoma and more than 100 µM in the experiment on EKVX NSCLC.
Regarding `O=C1CCC2CCC1C2` (stereo unspecified), the TGI in the experiment with NCI/ADR-RES ovarian, in the experiment on LOX IMVI melanoma, in the experiment on HL-60(TB) leukemia and with UACC-257 melanoma was more than 100 µM throughout.
With `Fc1ccccc1-c1nn2c(C34CC5CC(CC(C5)C3)C4)nnc2s1`, the TGI in the experiment on NCI/ADR-RES ovarian, in the experiment on LOX IMVI melanoma, with UACC-257 melanoma, in the experiment with EKVX NSCLC and with IGROV1 ovarian was more than 100 µM each time.
In the case of `CN(C)C(=O)Nc1cc2c3c(c1)CCCN3CCC2`, the TGI with NCI/ADR-RES ovarian, in the experiment with LOX IMVI melanoma, in the experiment on HL-60(TB) leukemia, in the experiment with UACC-257 melanoma, in the experiment with EKVX NSCLC and with IGROV1 ovarian was more than 10 µM in each case.
As to `COC(=O)c1ccccc1/C=C1\Cc2cc(C)cc(C)c2C1=O`, the TGI with LOX IMVI melanoma, in the experiment on HL-60(TB) leukemia, in the experiment with UACC-257 melanoma, with EKVX NSCLC and with IGROV1 ovarian was more than 100 µM throughout.
For the molecule `CCOC(=O)[C@@H]1ON2O[C@H](OC3CCCC3(c3ccccc3)c3ccccc3)C[C@H]3OC(=O)[C@@H]1C32` (stereo partly specified), the TGI was more than 100 µM with NCI/ADR-RES ovarian; 86.7 µM with LOX IMVI melanoma; 59.1 µM with HL-60(TB) leukemia; more than 100 µM in the experiment on UACC-257 melanoma; more than 100 µM with EKVX NSCLC; more than 100 µM in the experiment on IGROV1 ovarian.
With `O=c1[nH]c(=S)[nH]n1C(=S)n1[nH]c(=S)[nH]c1=O`, the TGI in the experiment with NCI/ADR-RES ovarian, with LOX IMVI melanoma, with HL-60(TB) leukemia, in the experiment with UACC-257 melanoma, in the experiment on EKVX NSCLC and in the experiment with IGROV1 ovarian was more than 100 µM throughout.
Take `C=C(Br)CN(C(C)=O)C1CCCCC1`: the TGI in the experiment on NCI/ADR-RES ovarian, in the experiment on LOX IMVI melanoma, in the experiment on HL-60(TB) leukemia, in the experiment on UACC-257 melanoma, with EKVX NSCLC and in the experiment on IGROV1 ovarian was more than 100 µM each time.
`OC(C/C(=N\N1CCCCC1)c1cccs1)(C(F)(F)F)C(F)(F)F`: the TGI in the experiment with NCI/ADR-RES ovarian, in the experiment with LOX IMVI melanoma, in the experiment on HL-60(TB) leukemia, with UACC-257 melanoma, in the experiment with EKVX NSCLC and in the experiment on IGROV1 ovarian was more than 10 µM in each case.
Turning to `COc1cc(NP(=O)(Oc2ccccc2)Oc2ccccc2)ccc1Nc1c2ccccc2nc2c1[nH]c1ccccc12`, the TGI with NCI/ADR-RES ovarian was 20.9 µM; in the experiment with LOX IMVI melanoma, more than 100 µM; with UACC-257 melanoma, more than 48.5 µM; in the experiment with EKVX NSCLC it was 44.9 µM; with IGROV1 ovarian it was more than 100 µM.
